In ChEMBL document CHEMBL5625248, “Identification of unique indolylcyanoethylenyl sulfonylanilines as novel structural scaffolds of potential antibacterial agents” (Eur J Med Chem, 2023):
In brackets after ≈: the same amount, converted by molar mass.

How the values were obtained:
Assay type in all cases: functional
[1] = tested on: Staphylococcus aureus; assay: Antibacterial activity against methicilin-resistant Staphylococcus aureus N315 assessed as inhibition of bacterial growth incubated for 18 hrs by two fold broth microdilution assay
[2] = tested on: Escherichia coli; assay: Antibacterial activity against Escherichia coli ATCC 25922 assessed as inhibition of bacterial growth incubated for 18 hrs by two fold broth microdilution assay
[3] = tested on: Staphylococcus aureus; assay: Antibacterial activity against Staphylococcus aureus ATCC 29213 assessed as inhibition of bacterial growth incubated for 18 hrs by two fold broth microdilution assay
[4] = tested on: Staphylococcus aureus; assay: Antibacterial activity against Staphylococcus aureus assessed as inhibition of bacterial growth incubated for 18 hrs by two fold broth microdilution assay
[5] = tested on: Escherichia coli; assay: Antibacterial activity against Escherichia coli assessed as inhibition of bacterial growth incubated for 18 hrs by two fold broth microdilution assay
[6] = tested on: Pseudomonas aeruginosa; assay: Antibacterial activity against Pseudomonas aeruginosa assessed as inhibition of bacterial growth incubated for 18 hrs by two fold broth microdilution assay
[7] = tested on: Pseudomonas aeruginosa; assay: Antibacterial activity against Pseudomonas aeruginosa ATCC 27853 assessed as inhibition of bacterial growth incubated for 18 hrs by two fold broth microdilution assay
[8] = tested on: Klebsiella pneumoniae; assay: Antibacterial activity against Klebsiella pneumoniae assessed as inhibition of bacterial growth incubated for 18 hrs by two fold broth microdilution assay
[9] = tested on: Enterococcus faecalis; assay: Antibacterial activity against Enterococcus faecalis assessed as inhibition of bacterial growth incubated for 18 hrs by two fold broth microdilution assay
[10] = tested on: Acinetobacter baumannii; assay: Antibacterial activity against Acinetobacter baumannii assessed as inhibition of bacterial growth incubated for 18 hrs by two fold broth microdilution assay
[11] = tested on: Staphylococcus aureus; assay: Antibacterial activity against Staphylococcus aureus ATCC 25923 assessed as inhibition of bacterial growth incubated for 18 hrs by two fold broth microdilution assay

Structure (SMILES) | MIC [1] | MIC [2] | MIC [3] | MIC [4] | MIC [5] | MIC [6] | MIC [7] | MIC [8] | MIC [9] | MIC [10] | MIC [11]
N#C/C(=C\c1c[nH]c2ccc([N+](=O)[O-])cc12)S(=O)(=O)c1ccc(N)cc1 | 128 µg/mL (≈ 347 µM) | 8 µg/mL (≈ 21.7 µM) | 64 µg/mL (≈ 174 µM) | 64 µg/mL (≈ 174 µM) | 128 µg/mL (≈ 347 µM) | 64 µg/mL (≈ 174 µM) | 16 µg/mL (≈ 43.4 µM) | 4 µg/mL (≈ 10.9 µM) | 128 µg/mL (≈ 347 µM) | 64 µg/mL (≈ 174 µM) | 128 µg/mL (≈ 347 µM)
CC(=O)Nc1ccc(S(=O)(=O)/C(C#N)=C/c2cn(CCO)c3ccccc23)cc1 | 32 µg/mL (≈ 78.2 µM) | 1 µg/mL (≈ 2.44 µM) | 2 µg/mL (≈ 4.88 µM) | 2 µg/mL (≈ 4.88 µM) | 4 µg/mL (≈ 9.77 µM) | 4 µg/mL (≈ 9.77 µM) | 8 µg/mL (≈ 19.5 µM) | 2 µg/mL (≈ 4.88 µM) | 4 µg/mL (≈ 9.77 µM) | 32 µg/mL (≈ 78.2 µM) | 2 µg/mL (≈ 4.88 µM)
N#C/C(=C\c1cn(CC2CCCCC2)c2ccccc12)S(=O)(=O)c1ccc(N)cc1 | 1 µg/mL (≈ 2.38 µM) | 2 µg/mL (≈ 4.77 µM) | 2 µg/mL (≈ 4.77 µM) | 16 µg/mL (≈ 38.1 µM) | 4 µg/mL (≈ 9.53 µM) | 4 µg/mL (≈ 9.53 µM) | 2 µg/mL (≈ 4.77 µM) | 4 µg/mL (≈ 9.53 µM) | 8 µg/mL (≈ 19.1 µM) | 32 µg/mL (≈ 76.3 µM) | 2 µg/mL (≈ 4.77 µM)
Cn1cc(/C=C(\C#N)S(=O)(=O)c2ccc(N)cc2)c2ccccc21 | 128 µg/mL (≈ 379 µM) | 2 µg/mL (≈ 5.93 µM) | 32 µg/mL (≈ 94.8 µM) | 256 µg/mL (≈ 759 µM) | 64 µg/mL (≈ 190 µM) | 64 µg/mL (≈ 190 µM) | 64 µg/mL (≈ 190 µM) | 4 µg/mL (≈ 11.9 µM) | 256 µg/mL (≈ 759 µM) | 2 µg/mL (≈ 5.93 µM) | 128 µg/mL (≈ 379 µM)
N#C/C(=C\c1cn(Cc2ccc([N+](=O)[O-])cc2)c2ccccc12)S(=O)(=O)c1ccc(N)cc1 | 128 µg/mL (≈ 279 µM) | 128 µg/mL (≈ 279 µM) | 128 µg/mL (≈ 279 µM) | 256 µg/mL (≈ 558 µM) | 128 µg/mL (≈ 279 µM) | 64 µg/mL (≈ 140 µM) | 128 µg/mL (≈ 279 µM) | 64 µg/mL (≈ 140 µM) | 128 µg/mL (≈ 279 µM) | 64 µg/mL (≈ 140 µM) | 256 µg/mL (≈ 558 µM)
N#C/C(=C\c1c[nH]c2cc(Br)ccc12)S(=O)(=O)c1ccc(N)cc1 | 128 µg/mL (≈ 318 µM) | 128 µg/mL (≈ 318 µM) | 32 µg/mL (≈ 79.5 µM) | 256 µg/mL (≈ 636 µM) | 32 µg/mL (≈ 79.5 µM) | 32 µg/mL (≈ 79.5 µM) | 32 µg/mL (≈ 79.5 µM) | 16 µg/mL (≈ 39.8 µM) | 128 µg/mL (≈ 318 µM) | 8 µg/mL (≈ 19.9 µM) | 16 µg/mL (≈ 39.8 µM)
CCCCCCn1cc(/C=C(\C#N)S(=O)(=O)c2ccc(N)cc2)c2ccccc21 | 32 µg/mL (≈ 78.5 µM) | 64 µg/mL (≈ 157 µM) | 4 µg/mL (≈ 9.82 µM) | 256 µg/mL (≈ 628 µM) | 8 µg/mL (≈ 19.6 µM) | 8 µg/mL (≈ 19.6 µM) | 8 µg/mL (≈ 19.6 µM) | 128 µg/mL (≈ 314 µM) | 4 µg/mL (≈ 9.82 µM) | 8 µg/mL (≈ 19.6 µM) | 2 µg/mL (≈ 4.91 µM)
CC(=O)Nc1ccc(S(=O)(=O)/C(C#N)=C/c2cn(Cc3ccccc3F)c3ccccc23)cc1 | 256 µg/mL (≈ 541 µM) | 64 µg/mL (≈ 135 µM) | 4 µg/mL (≈ 8.45 µM) | 128 µg/mL (≈ 270 µM) | 128 µg/mL (≈ 270 µM) | 64 µg/mL (≈ 135 µM) | 16 µg/mL (≈ 33.8 µM) | 256 µg/mL (≈ 541 µM) | 8 µg/mL (≈ 16.9 µM) | 16 µg/mL (≈ 33.8 µM) | 4 µg/mL (≈ 8.45 µM)
CCOC(=O)Cn1cc(/C=C(\C#N)S(=O)(=O)c2ccc(NC(C)=O)cc2)c2ccccc21 | 256 µg/mL (≈ 567 µM) | 256 µg/mL (≈ 567 µM) | 16 µg/mL (≈ 35.4 µM) | 128 µg/mL (≈ 283 µM) | 32 µg/mL (≈ 70.9 µM) | 8 µg/mL (≈ 17.7 µM) | 128 µg/mL (≈ 283 µM) | 64 µg/mL (≈ 142 µM) | 128 µg/mL (≈ 283 µM) | 128 µg/mL (≈ 283 µM) | 64 µg/mL (≈ 142 µM)
N#C/C(=C\c1cn(Cc2cccc(Cl)c2)c2ccccc12)S(=O)(=O)c1ccc(N)cc1 | 128 µg/mL (≈ 286 µM) | 32 µg/mL (≈ 71.4 µM) | 32 µg/mL (≈ 71.4 µM) | 128 µg/mL (≈ 286 µM) | 256 µg/mL (≈ 571 µM) | 64 µg/mL (≈ 143 µM) | 64 µg/mL (≈ 143 µM) | 256 µg/mL (≈ 571 µM) | 128 µg/mL (≈ 286 µM) | 32 µg/mL (≈ 71.4 µM) | 64 µg/mL (≈ 143 µM)
CC(=O)Nc1ccc(S(=O)(=O)/C(C#N)=C/c2c[nH]c3c(C)cccc23)cc1 | 64 µg/mL (≈ 169 µM) | 4 µg/mL (≈ 10.5 µM) | 32 µg/mL (≈ 84.3 µM) | 32 µg/mL (≈ 84.3 µM) | 4 µg/mL (≈ 10.5 µM) | 64 µg/mL (≈ 169 µM) | 64 µg/mL (≈ 169 µM) | 4 µg/mL (≈ 10.5 µM) | 32 µg/mL (≈ 84.3 µM) | 16 µg/mL (≈ 42.2 µM) | 128 µg/mL (≈ 337 µM)
CCCCCn1cc(/C=C(\C#N)S(=O)(=O)c2ccc(N)cc2)c2ccccc21 | 256 µg/mL (≈ 651 µM) | 16 µg/mL (≈ 40.7 µM) | 16 µg/mL (≈ 40.7 µM) | 256 µg/mL (≈ 651 µM) | 8 µg/mL (≈ 20.3 µM) | 64 µg/mL (≈ 163 µM) | 64 µg/mL (≈ 163 µM) | 8 µg/mL (≈ 20.3 µM) | 128 µg/mL (≈ 325 µM) | 32 µg/mL (≈ 81.3 µM) | 128 µg/mL (≈ 325 µM)
CC(=O)Nc1ccc(S(=O)(=O)/C(C#N)=C/c2cn(CCN(C)C)c3ccccc23)cc1 | 128 µg/mL (≈ 293 µM) | 64 µg/mL (≈ 147 µM) | 2 µg/mL (≈ 4.58 µM) | 128 µg/mL (≈ 293 µM) | 128 µg/mL (≈ 293 µM) | 64 µg/mL (≈ 147 µM) | 16 µg/mL (≈ 36.7 µM) | 8 µg/mL (≈ 18.3 µM) | 256 µg/mL (≈ 586 µM) | 32 µg/mL (≈ 73.3 µM) | 16 µg/mL (≈ 36.7 µM)
Cc1cccc2c(/C=C(\C#N)S(=O)(=O)c3ccc(N)cc3)c[nH]c12 | 128 µg/mL (≈ 379 µM) | 4 µg/mL (≈ 11.9 µM) | 32 µg/mL (≈ 94.8 µM) | 256 µg/mL (≈ 759 µM) | 64 µg/mL (≈ 190 µM) | 64 µg/mL (≈ 190 µM) | 64 µg/mL (≈ 190 µM) | 4 µg/mL (≈ 11.9 µM) | 256 µg/mL (≈ 759 µM) | 4 µg/mL (≈ 11.9 µM) | 128 µg/mL (≈ 379 µM)
CC(=O)Nc1ccc(S(=O)(=O)/C(C#N)=C/c2cn(CC=C(C)C)c3ccccc23)cc1 | 64 µg/mL (≈ 148 µM) | 8 µg/mL (≈ 18.5 µM) | 8 µg/mL (≈ 18.5 µM) | 4 µg/mL (≈ 9.23 µM) | 8 µg/mL (≈ 18.5 µM) | 64 µg/mL (≈ 148 µM) | 8 µg/mL (≈ 18.5 µM) | 16 µg/mL (≈ 36.9 µM) | 4 µg/mL (≈ 9.23 µM) | 8 µg/mL (≈ 18.5 µM) | 8 µg/mL (≈ 18.5 µM)
N#C/C(=C\c1cn(Cc2cccc(F)c2)c2ccccc12)S(=O)(=O)c1ccc(N)cc1 | 256 µg/mL (≈ 593 µM) | 64 µg/mL (≈ 148 µM) | 64 µg/mL (≈ 148 µM) | 128 µg/mL (≈ 297 µM) | 256 µg/mL (≈ 593 µM) | 64 µg/mL (≈ 148 µM) | 64 µg/mL (≈ 148 µM) | 4 µg/mL (≈ 9.27 µM) | 128 µg/mL (≈ 297 µM) | 8 µg/mL (≈ 18.5 µM) | 64 µg/mL (≈ 148 µM)
